Key:
[1] = excess molar enthalpy (molar enthalpy of mixing); xn = mol fraction of the nth substance listed; details: 298.15 K, 101 kPa, Liquid, Flow calorimetry
[2] = 101.33 kPa, Liquid, Vibrating tube method

COC(C)(C)CC(C)(C)C [methyl 1,1,3,3-tetramethylbutyl ether] + CO
[1]
Details | excess molar enthalpy [kcal/mol]
x2 = 0.051 | 0.0476
x2 = 0.097 | 0.0767
x2 = 0.193 | 0.11
x2 = 0.299 | 0.126
x2 = 0.391 | 0.128
x2 = 0.489 | 0.124
x2 = 0.591 | 0.112
x2 = 0.695 | 0.0966
x2 = 0.794 | 0.0736
x2 = 0.896 | 0.0425

CO [methanol]
Details | mass density [kg/m3]
[2], 298.15 K | 786.2

COC(C)(C)CC(C)(C)C [methyl 1,1,3,3-tetramethylbutyl ether]
[2]
Details | mass density [kg/m3]
298.15 K | 792.4
308.15 K | 784.1
318.15 K | 776
328.15 K | 767.6
338.15 K | 759.2
348.15 K | 750.7
358.15 K | 742.1
368.15 K | 733.4
378.15 K | 724.5
388.15 K | 715.5
398.15 K | 706.3
408.16 K | 696.8
